Drawing on PubChem BioAssay (NCI), this text covers TGI and GI50 for 17 compounds.

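Five compound concentrations were applied to cells in 96-well plates for 48 hours; endpoints were derived by simple linear interpolation of the resulting dose-response curve. GI50 = concentration required for 50% inhibition of growth. At the TGI there is no net growth.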 Bounds are passed on as bounds.

Common to all, as to assay: NCI tumour cell line growth inhibition, 48 h
The subject of assay [1] is COLO 205 colon.
Assay [2] relates to SK-MEL-2 melanoma.
The test system of assay [3] is HCC-2998 colon.
Assay [4] has as its system CAKI-1 renal.
Assay [5] concerns M14 melanoma.
Assay [6] relates to NCI/ADR-RES ovarian.
The test system of assay [7] is SR leukemia.
Assay [8] has as its system SNB-19 CNS.
The subject of assay [9] is SW-620 colon.
Assay [10] concerns EKVX NSCLC.

On to `CCCCCCCCCCC(C(=O)O)C1(C(=O)O)CCC(=O)O1` (stereo not drawn), for which the TGI in assay [1], in [2], in assay [3], in assay [4], in [5] and in [6] was above 100 µM in each case. In addition, the TGI in assay [7], in assay [8], in assay [9] and in assay [10] was above 100 µM each time.

As to `CN1CCC(n2cnc(-c3ccc(F)cc3)c2-c2ccnc(NCCO)n2)CC1`, the GI50 in [1] is 8.86 µM; in assay [2] it was above 25 µM; in assay [3], above 25 µM; in assay [4] it was above 17.9 µM; in assay [5], above 25 µM; in [6], above 25 µM. The GI50 in [7] is 23.7 µM; in assay [8] it was above 25 µM; in [9] it was 15.8 µM; in assay [10] it was above 23.2 µM. In addition, the TGI in [1], in assay [2], in [3], in [4], in assay [5] and in assay [6] was above 25 µM in each case. Moreover, the TGI in [7], in [8], in assay [9] and in [10] was above 25 µM throughout.

Consider `CC#C[C@]1(O)CC[C@H]2[C@@H]3CCC4=CC(=O)CCC4=C3[C@@H](c3ccc4c(c3)OCO4)C[C@@]21C`, for which the GI50 in assay [1] is 118 µM; in [2], 111 µM; in assay [3], 174 µM; in [5], 31 µM; in [6], 92.4 µM; in assay [7] it was 77.2 µM. Also, the GI50 in [8] is 174 µM; in assay [9] it was 62.3 µM; in assay [10], 40.4 µM. The TGI is 291 µM in assay [1]; 291 µM in [2]; 572 µM in assay [3]; 154 µM in assay [5]; above 1000 µM in assay [6]; 479 µM in assay [7]. In addition, the TGI in assay [8] was above 1000 µM; in assay [9] it was above 1000 µM; in assay [10], 813 µM.

For `O=c1cc(-c2ccccc2)[nH]c2ccccc12`, the GI50 is 0.45 µM in assay [1]; above 100 µM in [2]; 0.639 µM in [3]; 0.825 µM in [4]; 0.941 µM in [5]; 0.483 µM in [6]. The GI50 was 0.881 µM in assay [8], 0.379 µM in [9] and 8.95 µM in assay [10]. For the same compound, the TGI in assay [2], in [4], in assay [5], in [7], in assay [8] and in assay [9] was above 100 µM each time. The same compound came in with a TGI in assay [10] above 100 µM.

For `Cc1ccc(-c2cn3ccnc3c(-c3ccc(Cl)cc3)n2)cc1`, the GI50 in assay [1] is 0.2 µM; in assay [2], 9.27 µM; in [3] it was 2.13 µM; in [4], 0.0361 µM; in [5], 0.416 µM; in assay [6], 0.102 µM. The GI50 in [7] is 0.0548 µM; in assay [8] it was 1.39 µM; in assay [9], below 0.0217 µM; in [10] it was 0.543 µM. The TGI is above 29.3 µM in [1]; above 100 µM in [2]; 11.4 µM in [3]; 2.84 µM in assay [4]; above 36.3 µM in [5]; above 30.6 µM in assay [6]. Further, the TGI in [8] is above 65.4 µM; in assay [9] it was above 61.2 µM; in assay [10], above 100 µM.

As to `C[C@@H]1C[C@H]2CC[C@H](O2)[C@H](C)C(=O)O[C@@H](C)C[C@@H]2CC[C@@H](O2)[C@@H](C)C(=O)O[C@H](C)C[C@H]2CC[C@H](O2)[C@H](C)C(=O)O[C@@H](C)C[C@@H]2CC[C@@H](O2)[C@@H](C)C(=O)O1`, the TGI in assay [1] is 0.33 µM; in [2] it was 3.34 µM; in assay [3], above 27.8 µM; in assay [4], 12.8 µM; in [5], above 85 µM; in assay [6] it was 21 µM. Besides, the TGI was above 42.8 µM in assay [7], above 100 µM in assay [8], above 100 µM in assay [9] and above 100 µM in assay [10].

Consider `COc1ccc2sc3c(NCCCN(C)C)nc4ccccc4c3c(=O)c2c1`, for which the GI50 is 1.58 µM in assay [1]; 1.76 µM in [2]; 1.7 µM in assay [3]; 1.6 µM in assay [4]; 1.78 µM in assay [5]; 1.64 µM in [6]. Moreover, the GI50 in assay [7] is 1.68 µM; in [8] it was 1.64 µM; in [9] it was 1.55 µM; in assay [10], 1.51 µM. Further, the TGI in assay [1] turned out to be 3.52 µM; in [2], 3.32 µM; in assay [3] it was 3.26 µM; in [4] it was 2.95 µM; in [5] it was 3.33 µM; in [6] it was 3.28 µM. Moreover, the TGI is 5.99 µM in assay [7], 3.06 µM in assay [8], 3.04 µM in assay [9] and 2.93 µM in [10].

For `CC(CCC(=O)O)[C@H]1CCC2[C@@H]3CC[C@@H]4CC(O)CC[C@]4(C)C3CC[C@@]21C` (stereo partly drawn), the GI50 was 23.7 µM in [1]; 28.5 µM in assay [2]; 22.2 µM in assay [3]; 26.7 µM in assay [4]; 30.4 µM in assay [5]; 54.3 µM in [6]. For the same compound, the GI50 in [7] was 23.4 µM; in assay [8], 56.5 µM; in [9], 42.4 µM; in [10] it was 44.4 µM. Further, the TGI in assay [1] is 53.1 µM; in assay [2], 87.1 µM; in assay [3], 61 µM; in assay [4], 72.3 µM; in assay [5], 97.8 µM; in [6] it was above 100 µM. In addition, the TGI in [7] is 85.4 µM; in assay [8] it was above 100 µM; in assay [9] it was above 100 µM; in [10], above 100 µM.

Turning to `OC(c1cc(-c2ccccc2)nc2ccc(Cl)cc12)C1CCCCN1` (stereo not drawn), the GI50 in assay [2] was 2.45 µM; in [3], 1.83 µM; in assay [4], 2.1 µM; in assay [5], 1.87 µM; in assay [6], 2.25 µM; in assay [7], 1.88 µM. Further, the figures for the GI50 in [8], in assay [9] and in [10] were 1.99 µM, 1.94 µM and 2.36 µM, respectively. Further, the TGI in assay [2] came to 5.02 µM; in assay [3], 3.34 µM; in assay [4], 5.9 µM; in assay [5] it was 3.54 µM; in assay [6] it was 5.35 µM; in [7], 5.44 µM. Further, the TGI in assay [8] worked out at 4.2 µM; in [9], 3.69 µM; in assay [10], 6.27 µM.

`CCOC(=O)c1c2c(n3ccccc13)C(=O)c1ccccc1C2=O`: the TGI in assay [1] is above 100 µM; in assay [2], above 100 µM; in assay [3] it was 7.59 µM; in [4] it was above 100 µM; in [5], above 100 µM; in assay [6] it was above 100 µM. Moreover, the TGI in assay [7], in assay [8], in assay [9] and in assay [10] was above 100 µM throughout.

Consider `O=C(/C=C/c1ccccc1)c1cc(Br)ccc1O`, for which the TGI amounted to 33.3 µM in [1]; 40.6 µM in assay [2]; 32.2 µM in assay [3]; 31.1 µM in assay [4]; 52.9 µM in assay [5]; 34.9 µM in assay [6]. In addition, the TGI in assay [7] worked out at 12.3 µM; in [8], 35.8 µM; in assay [9], 46.8 µM; in assay [10], 27.6 µM.

In the case of `CCOC(=O)c1cc(NS(=O)(=O)c2ccccc2)cc(C(=O)OCC)c1`, the GI50 in assay [1], in [2], in assay [3], in assay [4], in assay [6] and in assay [7] was above 100 µM throughout. Also, the GI50 in [8], in assay [9] and in [10] was above 100 µM throughout. In addition, the TGI in [1], in [2], in assay [3], in assay [4], in assay [6] and in assay [7] was above 100 µM throughout. The TGI in assay [8], in [9] and in assay [10] was above 100 µM in each case.

As for `Cn1cccc1-c1cc(-c2cccs2)nc(N)c1C#N`, the GI50 in assay [1] is above 100 µM; in assay [2], above 100 µM; in assay [3], above 100 µM; in assay [4], above 100 µM; in [6] it was above 100 µM; in [7], 5.39 µM. The GI50 in [8], in assay [9] and in assay [10] was above 100 µM throughout. The TGI is above 100 µM in [1]; above 100 µM in [2]; above 100 µM in assay [3]; above 100 µM in assay [4]; above 100 µM in assay [6]; 68.2 µM in [7]. The TGI in assay [8], in assay [9] and in assay [10] was above 100 µM in each case.

For the compound `CCCC(C)c1cc(Cc2cc(Cl)cc(Cl)c2O)c(O)c(Cc2cc(Cl)cc(Cl)c2O)c1` (stereo not drawn), the GI50 in assay [1] was 1.61 µM; in assay [2] it was 1.76 µM; in assay [3], 1.42 µM; in [4] it was 1.23 µM; in [5] it was 1.63 µM; in assay [6], 1.66 µM. The GI50 in [7] was 0.249 µM; in assay [9] it was 1.61 µM; in assay [10], 1.96 µM. Also, the TGI in assay [1] was found to be 5.7 µM; in assay [2], 4.77 µM; in [3], 10.5 µM; in assay [4], 10.4 µM; in [5], 7.46 µM; in assay [6] it was 11.2 µM. Further, the TGI was 11 µM in assay [7], 12.7 µM in assay [9] and 11 µM in [10].

In the case of `O=C(O)/C=C\C(=O)N1C/C(=C\c2ccccc2Cl)C(=O)/C(=C/c2ccccc2Cl)C1`, the GI50 in [1] is 2.27 µM; in assay [2], 3.08 µM; in assay [3] it was 2.06 µM; in assay [4] it was 4.29 µM; in assay [5] it was 3.1 µM; in assay [6], 4.08 µM. In addition, the figures for the GI50 in [7], in assay [8] and in assay [10] were 0.632 µM, 1.98 µM and 5.24 µM, respectively. Besides, the TGI in [1] stood at 4.33 µM; in assay [2], 8.33 µM; in assay [3], 3.87 µM; in assay [4], 15 µM; in [5] it was 10.6 µM; in assay [6], 22.5 µM. Also, the TGI is 13 µM in assay [7], 5.34 µM in assay [8] and 18.3 µM in assay [10].

For the compound `CC(C)c1cc(-c2n[nH]c(=O)n2-c2ccc3c(ccn3C)c2)c(O)cc1O`, the GI50 in assay [1] is 0.0259 µM; in [3] it was 0.0256 µM; in [4] it was 0.0479 µM; in [5] it was below 0.0198 µM; in assay [6], 0.0409 µM; in assay [7] it was below 0.01 µM. For the same compound, the GI50 in [8] is below 0.0236 µM; in assay [9] it was below 0.013 µM. In addition, the TGI in assay [1] was 0.981 µM; in assay [2], 25.7 µM; in [3], 2.77 µM; in assay [4] it was above 71.5 µM; in [5], 21.1 µM; in assay [6], above 100 µM. Further, the TGI was 35 µM in [7], above 48.5 µM in assay [8] and 24.5 µM in assay [9].

Take `COc1ccc(/C=C2\CCCC3=C2N=C2SC(C)=NN2C3c2ccc(OC)c(OC)c2)cc1OC` (stereo not drawn): the GI50 in assay [1] was 5.24 µM; in assay [2], 22.2 µM; in assay [3], above 100 µM; in [4], 4.82 µM; in [5] it was 5.73 µM; in assay [6], 4.71 µM. Besides, the GI50 was 3.66 µM in assay [7], 39.2 µM in assay [8] and 6.79 µM in [9]. In addition, the TGI was above 100 µM in assay [1]; 97.1 µM in [2]; above 100 µM in [3]; above 100 µM in assay [4]; above 100 µM in assay [5]; above 100 µM in [6]. Besides, the TGI was above 100 µM in [7], above 100 µM in assay [8] and 53.8 µM in assay [9].
